Experimental data: patent publication US20080063628A1, “METHODS TO PROMOTE CELL DIFFERENTIATION” (priority 2006, published 2008)

Tested on: early passage (P5) pancreatic-derived stromal cell line
Test: Two sequential high dose trichostatin A treatments (24 h each), gene expression by RT-PCR (Example 8)
Type: cell-based, human
Conditions: for HNF-3 beta gene expression / Insulin gene expression / Pdx-1 gene expression / glucagon gene expression: 5 μM 0-24 h + 96-120 h
Experimental: Several cell lines obtained from different amniotic fluid specimens (see Example 14) and pancreas donors (see Example 13) were tested with similar results. Two lines at similar passage number but derived from different amniotic fluid specimens are shown in Table VIII-A and Table VIII-B for this example. One of these cell lines was also used in examples 2 and 4 above. In addition, this example also contains comparison data in Table VIII-C and Table VIII-D for a single pancreatic-derived stromal line grown to early and late passage number.
Amniotic fluid derived cells or pancreatic-derived stromal cells were seeded into 24-well tissue culture plates at a density of 5000/cm^2 and cultured in AMNIOMAX (Invitrogen) or DMEM with 10% FBS respectively under standard cell culture conditions until confluent. After the cells reached confluency, amniotic fluid derived cells were treated at time 0 hours with a dose of 1.25 μM trichostatin A, and pancreatic-derived stromal cells were treated with a dose of 5.0 μM trichostatin A solubilized in DMSO and medium. At time 24 hours, cell cultures underwent a complete medium change to remove all traces of trichostatin A. At time 96 hours, cell cultures were re-fed with fresh medium and received a second dose of trichostatin A at the same concentration as used previously. At time 120 hours, cell cultures again underwent a complete medium change and were cultured for an additional 24 hours or […] total incubation time.
Samples were taken daily for RT-PCR at the times indicated in Table VIII-A to D. The culture media was removed, and samples were rinsed in PBS then collected in RLT with β-mercaptoethanol (Qiagen). RNA was purified using the RNeasy Mini Kit (Qiagen) and RNA quantity and quality were determined using a spectrophotometer. cDNA was made using the iScript cDNA synthesis kit (BioRad).
Samples of 20 ng cDNA were used in each reaction to determine the expression levels of the following genes in amniotic fluid-derived cells: Gata1, HNF-3 beta, Pdx-1, insulin, and Sox17. Similarly, samples of 20 ng cDNA were used in each reaction to determine the expression level of the following genes in pancreatic-derived cells: glucagon, HNF-3 beta, insulin and Pdx-1. Real-Time PCR was performed on the Applied Biosystems 7500, and data was analyzed using the accompanying software according to the methods described in Example 15.
Real-time PCR amplifcation and quantitative analysis. Unless otherwise stated, all reagents were purchased from Applied Biosystems. Real-time PCR reactions were performed using the ABI PRISM™ 7500 Sequence Detection System. TAQMAN™ FAST UNIVERSAL PCR MASTER MIX™ (ABI, CA) was used with 20 ng of reverse transcribed RNA in a total reaction volume of 20 μl. Each cDNA sample was run in duplicate to allow correction of pipetting errors. Primers and FAM-labeled TAQMAN™ probes were used at concentrations of 200 nM. The level of expression for each target gene was normalized using the pre-developed Applied Biosystem's human glyceraldehyde-3-phosphate dehydrogenase (GAPDH) endogenous control kit. Primers and probes were designed using either ABI PRISM PRIMER EXPRESS™ software or a pre-developed ABI gene analysis kit. For each gene, either one of the primers or the probe were designed to be exon-boundary spanning. This eliminated the possibility of the primers/probe binding to any genomic DNA present. The primer and probe sets are listed as follows: Pdx-1 (Hs00426216), Insulin (Hs00355773), glucagon (Hs00174967), and FoxA2 (HNF 3-beta) (Hs00232764). The remaining primers were designed using the PRIMERS program (ABI, CA). After an initial 95° C. incubation for 20 sec, samples were cycled 40 times in two stages: a denaturation step at 95° C. for 3 sec, followed by an annealing/extension step at 60° C. for 30 sec. […]

[1] = 5.0 μM, following first treatment

Compound: CC(/C=C/C(=O)NO)=C\[C@@H](C)C(=O)c1ccc(N(C)C)cc1 [trichostatin A]
- HNF-3 beta gene expression (24 hrs): +++ (detectable at less than 35 cycles by RT-PCR with SE less than 0.9)
- Insulin gene expression (24 hrs): nd (not detectable at >40 cycles by RT-PCR)
- Pdx-1 gene expression (24 hrs): ++ (detectable at less than 35 cycles by RT-PCR with SE greater than 0.9)
- glucagon gene expression (24 hrs): +++ (detectable at less than 35 cycles by RT-PCR with SE less than 0.9)
- HNF-3 beta gene expression (48 hrs): nd (not detectable at >40 cycles by RT-PCR)
- Insulin gene expression (48 hrs): nd (not detectable at >40 cycles by RT-PCR)
- Pdx-1 gene expression (48 hrs): nd (not detectable at >40 cycles by RT-PCR)
- glucagon gene expression (48 hrs): + (detectable between 35 and 40 cycles by RT-PCR)
- HNF-3 beta gene expression (72 hrs): nd (not detectable at >40 cycles by RT-PCR)
- Insulin gene expression (72 hrs): nd (not detectable at >40 cycles by RT-PCR)
- Pdx-1 gene expression (72 hrs): nd (not detectable at >40 cycles by RT-PCR)
- glucagon gene expression (72 hrs): + (detectable between 35 and 40 cycles by RT-PCR)
- HNF-3 beta gene expression (96 hrs): nd (not detectable at >40 cycles by RT-PCR)
- Insulin gene expression (96 hrs): nd (not detectable at >40 cycles by RT-PCR)
- Pdx-1 gene expression (96 hrs): nd (not detectable at >40 cycles by RT-PCR)
- glucagon gene expression (96 hrs): nd (not detectable at >40 cycles by RT-PCR)
- HNF-3 beta gene expression (120 hrs): + (detectable between 35 and 40 cycles by RT-PCR)
- Insulin gene expression (120 hrs): nd (not detectable at >40 cycles by RT-PCR)
- Pdx-1 gene expression (120 hrs): +++ (detectable at less than 35 cycles by RT-PCR with SE less than 0.9)
- glucagon gene expression (120 hrs): nd (not detectable at >40 cycles by RT-PCR)
- HNF-3 beta gene expression (144 hrs): nd (not detectable at >40 cycles by RT-PCR)
- Insulin gene expression (144 hrs): nd (not detectable at >40 cycles by RT-PCR)
- Pdx-1 gene expression (144 hrs): nd (not detectable at >40 cycles by RT-PCR)
- glucagon gene expression (144 hrs): + (detectable between 35 and 40 cycles by RT-PCR)
- Pdx-1 RT-PCR detection cycle (5.0 μM, after the second treatment): 32 cycles
- glucagon RT-PCR detection cycle (5.0 μM, end of the experiment): 38 cycles
- HNF-3 beta RT-PCR detection cycle (5.0 μM, following a second treatment): 36 cycles
- HNF-3 beta RT-PCR detection cycle [1]: 34 cycles
- glucagon RT-PCR detection cycle [1]: 35 cycles
